Test system: cerebral cortical mixed neuronal cells or hippocampal neurons
Assay: Oxygen glucose deprivation (OGD) of neurons in culture, cell viability
Type: cell-based, rat
Conditions: for neuroprotection against OGD-induced neuronal cell death: 200 nM, 500 nM or 1 μM added after 90 mins OGD and 2 h reoxygenation, Hoechst, calcein or MTT
Description: Primary cultures of cortical and hippocampal neurons were harvested from 18-day-old embryos (E18) taken from timed-pregnant, two-month-old Sprague-Dawley (SD) rats (Charles River Lab., Wilmington, Mass.). Briefly, timed-pregnant SD rats were euthanized and embryos were collected in sterile conditions. Embryonic brains were dissected out by forceps on ice and placed in a petri dish containing ice-cold Hank's Balanced Salt Solution (HBSS) (GIBCO). Meninges were removed under a dissecting microscope and cortical tissues were chopped into small pieces with micro-spring scissors. These tissues were transferred to 15 ml tubes containing trypsin-EDTA (0.025% in HBSS) and DNase I. The tubes were incubated in 37° C. chamber for 15 mins and were agitated every 5 mins. After stopping the trypsinization with 5 ml 10% FBS, these tissues were triturated 15 times with a fire polished Pasteur pipet. Cell clumps were left to settle for 2 mins and the supernatant was transferred to a 15 ml Eppendorf tube. The supernatant was filtered through a 70 μm pore-sized filter (Corning cell strainer) and centrifuged for 5 mins at 1000 rpm. The cells were then resuspended in Neurobasal medium (GIBCO) containing 2% B27 (GIBCO) and 2% N2 (GIBCO) supplements, along with 0.5 mM glutamine, 50 U/ml penicillin/streptomycin.
Cells were counted using a Neubauer hemocytometer. 1×10^6 cells were seeded on poly-D-lysine-coated 12 well cell culture dish (CORNING) and cultured in incubator (37° C., 5% CO2). Culture medium was first replaced after 24 h, then half of the medium was replaced with fresh medium every three days. As a result, approximately, 90% purity of neurons was obtained as determined by class-III-β tubulin, GFAP and Hoechst 33258 staining. Cells were maintained in culture for about 2 weeks until they were exposed to uncompensated oxidative stress, OGD, or NMDA excitotoxicity.
An in vitro oxygen glucose deprivation (OGD) model was established. Primary cortical neurons were cultured from SD rat embryos. On day in vitro (DIV) 12, cells were washed with phosphate-buffered saline and incubated in glucose-free Neurobasal medium (GIBCO) for 30 mins. The cells were then placed in a modular incubator chamber and incubated in an anaerobic chamber (95% N2, 5% CO2) at 37° C. for 90 mins for OGD.
After 90 mins of OGD exposure, cells were returned to the original medium (Neurobasal medium (GIBCO) containing 2% B27 (GIBCO) and 2% N2 (GIBCO) supplements, along with 0.5 mM glutamine, 50 U/ml penicillin/streptomycin) and placed in a normoxic chamber (37° C., 5% CO2) for 2 h. […] a normoxic chamber (37° C., 5% CO2) for 12 h, after which cells were sampled and assayed for cell viability using different methods as previously described (25-28). Cerebral cortical mixed neuronal cells or hippocampal cells in culture were exposed to either NMDA or uncompensated oxidative stress (UOS) for 12 h by addition of either NMDA (25 μM, 50 μM, or 100 μM) concentration or by the addition of TNFα (10 ng/mL) and H2O2 (50 μM, 100 μM, or 200 μM). Cell viability and neuroprotection in the presence of ELV-N32, ELV-N34, 32:6, or 34:6 were assayed after 12 h.
Cells were washed with 1× Dulbecco's Phosphate Buffered Saline (DPBS) containing no calcium or magnesium (GIBCO) and fixed for 10 mins using ice-cold 4% paraformaldehyde (PFA) followed by 15 mins incubation in 100% methanol. Cells were washed with 1× Phosphate Buffered Saline (PBS) pH 7.4 (GIBCO) and incubated in PBS containing 20 μM Hoechst 33258 (Molecular Probes) for 20 mins. Cells were then washed 3 times with 1×PBS and stored in 1×PBS at 4° C. until they were imaged for microscopy.
One 4×4 tile mosaic was acquired from the center of each well using a Zeiss 510 Meta laser confocal microscope and LSM 510 Meta software. Images were imported into image analysis software ImageJ (National Institutes of Health, Bethesda, Md.) and batch processed using custom macros. […]

[1] = 250 nM added after OGD exposure
[2] = 500 nM, 90 min OGD, hippocampal (DIV 12) or cortical (DIV 28) culture

SMILES | neuroprotection after OGD by VLC-PUFA precursor [1] | neuroprotection after OGD by VLC-PUFA precursor [2] | neuroprotection against OGD-induced neuronal cell death
CC/C=C\C/C=C\C/C=C\C/C=C\C/C=C\C/C=C\CCCCCCCCCCCCCCC(=O)O [34:6n3, (16Z,19Z,22Z,25Z,28Z,31Z)-tetratriaconta-16,19,22,25,28,31-hexaenoic acid] | elicit neuroprotection | showed neuroprotection | 
CC/C=C\C[C@H](O)\C=C/C=C/C=C/[C@H](O)C/C=C\C/C=C\CCCCCCCCCCCCC(=O)[O-].[Na+] [ELV-N32-Na, sodium (14Z,17Z,20R,21E,23E,25Z,27S,29Z)-20,27-dihydroxydotriaconta-14,17,21,23,25,29-hexaenoate] |  |  | elicited neuroprotection
CC/C=C\C/C=C\C/C=C\C/C=C\C/C=C\C/C=C\CCCCCCCCCCCCC(=O)O [32:6n3, (14Z,17Z,20Z,23Z,26Z,29Z)-dotriaconta-14,17,20,23,26,29-hexaenoic acid] | provide neuroprotection | showed neuroprotection | 
CC/C=C\C[C@H](O)\C=C/C=C/C=C/[C@H](O)C/C=C\C/C=C\CCCCCCCCCCCCCCC(=O)[O-].[Na+] [ELV-N34-Na, sodium (16Z,19Z,22R,23E,25E,27Z,29S,31Z)-22,29-dihydroxytetratriaconta-16,19,23,25,27,31-hexaenoate] |  |  | elicited neuroprotection
CC/C=C\C[C@H](O)\C=C/C=C/C=C/[C@H](O)C/C=C\C/C=C\CCCCCCCCCCCCCCC(=O)OC [ELV-N34-Me, methyl (16Z,19Z,22R,23E,25E,27Z,29S,31Z)-22,29-dihydroxytetratriaconta-16,19,23,25,27,31-hexaenoate] |  |  | elicited neuroprotection
CC/C=C\C[C@H](O)\C=C/C=C/C=C/[C@H](O)C/C=C\C/C=C\CCCCCCCCCCCCC(=O)OC [ELV-N32-Me, methyl (14Z,17Z,20R,21E,23E,25Z,27S,29Z)-20,27-dihydroxydotriaconta-14,17,21,23,25,29-hexaenoate] |  |  | elicited neuroprotection
